In patent US20230220047A1, “PEPTIDES FOR TREATMENT OF SEPSIS AND CANCER” (NORWEGIAN UNIVERSITY OF SCIENCE AND TECHNOLOGY (NTNU), priority 2020, published 2023):
Entries after “also recorded” stand apart in the source; their conditions may differ.

Key:
[1] = tested on: IH-1 multiple myeloma cells; assay: CellTiter-Glo cell viability assay, IH-1; format: cell-based, human; conditions: IH-1, 10 μM, 48 h
Experimental: Minor effects on the proliferation of the IH-1 and RPMI 8226 cell lines are seen. Cells were seeded at the level shown (left-hand bar of each set) then incubated in medium containing water, 10 μM penetratin or 10 μM P7-A4-Pen for 48 hr (except for INA-6 cells, which were incubated with 12.5 μM penetratin or 12.5 μM P7-A4-Pen). The number of viable cells was detected based on quantitation of ATP by luminescent signal in correlation to a standard curve prepared for each cell line. Results are based on 3-5 biological replicates for each condition, error bars show standard deviation of mean.
Multiple myeloma cells JJN-3 (DSMZ (Germany) no. ACC 541), ANBL-6 (Cellosaurus accession number CVCL_5425, obtained from Dr Diane Jelinek, Mayo Clinic, Rochester, Minn.), INA-6 (Cellosaurus accession number CVCL_5209, obtained from Dr M. Gramatzki, University of Erlangen-Nurnberg, Erlangen, Germany), RPMI-8226 (ATCC CCL-155), and IH-1 (Cellosaurus accession number CVCL_WZ44, established from the pleural effusion of a myeloma patient by Myeloma research group, IKOM, NTNU, Trondheim, Norway) were grown in RPMI-1640 (Sigma-Aldrich Norway, Oslo, Norway) supplemented with 100 nM penicillin/streptomycin and 10% FCS, and for ANBL-6, IH-1 and INA-6 cells 2 ng/ml recombinant IL-6 (Gibco, Thermo Fisher Scientific, Waltham, Mass., USA). […]

[2] = tested on: TLR4; assay: Cytokine expression in primary human monocytes stimulated by LPS or E. coli particles; format: cell-based
Experimental: Use of human monocytes from blood donors was approved by the Regional Committees for Medical and Health Research Ethics at the Norwegian University of Science and Technology (NTNU). Human monocytes were isolated from buffy coats by adherence as previously described (Husebye et al., Immunity 33: 583-596, 2010). Briefly, freshly prepared buffy coat (The Blood Bank, St. Olav's Hospital, Trondheim, Norway) was diluted in 100 ml PBS, and PBMCs isolated by density gradient centrifugation using Lymphoprep (Axis-Shield) according to the manufacturer's instructions. […] Cells were counted using a Z2 Coulter Particle Count and Size Analyzer (Beckman Coulter) on program B, re-suspended in RPM11640 (Sigma) supplemented with 5% pooled human serum at a concentration of 8×10^6 per ml and seeded into 6-well (1 ml per well) or 24-well (0.5 ml per well) cell culture dishes. […] Total RNA was isolated from the cells using Qiazol reagent #79306 from QIAGEN, and chloroform extraction followed by purification on RNeasy Mini columns with DNAse digestion (Qiagen). cDNA was prepared using the Maxima First Strand cDNA Synthesis Kit for quantitative real-time polymerase chain reaction (RT-qPCR) (Thermo Fisher Scientific) according to the manufacturer's protocol. qPCR was performed using the PerfeCTa qPCR FastMix (Quanta Biosciences) in replicates and cycled in a StepOnePlusTM Real-Time PCR cycler. […]

Substance	cell proliferation [1]	IFNβ, TNF, IL-1β and IL-6 expression in response to TLR4 stimulation ([2]; 15 μM, 30 min pre-treatment, LPS 100 ng/ml, all tested donors)	reducing cytokine secretion by monocytes stimulated by E. coli particles ([2]; P7-Pen 15 μM vs P7-Arg11 10 μM)
Ac-ITVAASVTLTGRQIKIWFQNRRMKWKK-NH2 [Peptide P7-A4-Pen]	Minor effects; also recorded: inhibited cell proliferation	–	–
Ac-ITVYASVTLTGRQIKIWFQNRRMKWKK-NH2 [Peptide P7-Pen]	–	significantly decreased	more effective than P7-Arg11
